Assay type in all cases: functional, cell-based
Experiment [1] concerns HeLa. Briefly: Cytotoxicity against human HeLa cells assessed as reduction in cell viability after 72 hrs by WST8 assay. Background: Formazan colour is commonly taken as a measure of viable cells.
Experiment [2] concerns HeLa. Briefly: Induction of apoptosis in human HeLa cells assessed as loss of cytoplasmic and nuclear integrity at 25 uM after 72 hrs by acridine orange/Hoechst 33342 staining based microscopic method.
Experiment [3] has as its system HeLa. Briefly: Induction of apoptosis in human HeLa cells assessed as nuclear fragmentation at 25 uM after 72 hrs by acridine orange/Hoechst 33342 staining based microscopic method.

pIC50: −log10 of the molar value. Active and inactive are the calls of the source. The rule behind the calls is not given here.

Usually pIC50 stands for −log10 of the IC50, conventionally taken in molar units. With `COC(=O)/C=C\c1cc(OC)c2c(c1)[C@@H](CO)[C@H](c1ccc(O)c(OC)c1)O2`, in the experiment with HeLa [1], the pIC50 is 4.06.

In the case of `COC(=O)/C=C\c1cc(OC)c2c(c1)[C@H](CO)[C@H](c1ccc(O)c(OC)c1)O2`, the negative logarithm of the IC50 (pIC50) with HeLa [1] is 3.99.

As for `COC(=O)/C=C\c1cc(OC)c2c(c1)[C@H](CO)[C@@H](c1ccc(O)c(OC)c1)O2`, in the experiment on HeLa [1], the pIC50 is 4.10.

Take `O=c1[nH]cc(F)c(=O)[nH]1` [FLUOROURACIL]: the pIC50 with HeLa [1] is 4.86.

As to `COC(=O)/C=C/c1cc(OC)c2c(c1)[C@H](CO)[C@@H](c1ccc(O)c(OC)c1)O2`, the pIC50 with HeLa [1] was 4.05.

With `COC(=O)/C=C/c1cc(OC)c2c(c1)[C@@H](CO)[C@H](c1ccc(O)c(OC)c1)O2`, the result in the experiment on HeLa [2] and with HeLa [3] was Active. The pIC50 in the experiment with HeLa [1] is 4.68.

As to `COC(=O)/C=C\c1cc(OC)c2c(c1)[C@@H](CO)[C@@H](c1ccc(O)c(OC)c1)O2`, the negative logarithm of the IC50 (pIC50) with HeLa [1] is 4.49.

With `COC(=O)/C=C/c1cc(OC)c2c(c1)[C@@H](CO)[C@@H](c1ccc(O)c(OC)c1)O2`, the pIC50 with HeLa [1] was 3.98.

As for `COC(=O)/C=C/c1cc(OC)c2c(c1)[C@H](CO)[C@H](c1ccc(O)c(OC)c1)O2`, the pIC50 with HeLa [1] was 4.02.
